Literature values, collected in patent publication US10927398B2, “Compositions for CYP450 phenotyping using saliva samples” (Concordia University, Inc., priority 2015, dated 2021).
Where two headings read alike, the source gives them in different places.

Columns and labels:
[1] = cited from earlier work
plasma protein = details: cited from earlier work
[2] = cited from earlier work; remark: listed apart in the source
[3] = Table of Exemplary Drugs, CYP1A2
[4] = Table of Exemplary Drugs, CYP2D6
[5] = Table of Exemplary Drugs, CYP3A4
[6] = Table of Exemplary Drugs, CYP2C19
[7] = Table of Exemplary Drugs, CYP2C9

Q: With COc1ccc2cccc(CCNC(C)=O)c2c1 [Agomelatine] as the compound, how does the “ORAL BIOAVAILABILITY” value [1, 3] read?
A: <5%

Q: What about the “PLASMA PROTEIN BINDING” value (plasma protein; [3]) of the same compound?
A: 95%

Q: What about the “HALF-LIFE” value [2, 3] of the same compound?
A: 1 to 2 h

Q: With O=C(CCCN1CCC(O)(c2ccc(Cl)cc2)CC1)c1ccc(F)cc1 [Haloperidol] as the compound, how does the “ORAL BIOAVAILABILITY” value [1, 3] read?
A: 60%

Q: What about the “ORAL BIOAVAILABILITY” value [1, 4] of the same compound?
A: 60%

Q: And the “PLASMA PROTEIN BINDING” value (plasma protein; [3])?
A: 88.4-92.5% ^

Q: What about the “PLASMA PROTEIN BINDING” value (plasma protein; [4]) of the same compound?
A: 88.4-92.5% ^

Q: And the “HALF-LIFE” value [2, 3]?
A: 14 to 37 h

Q: What about the “HALF-LIFE” value [2, 4] of the same compound?
A: 14 to 37 h

Q: What does the source list for CC[C@H]1OC(=O)[C@H](C)[C@@H](O[C@H]2C[C@@](C)(OC)[C@@H](O)[C@H](C)O2)[C@H](C)[C@@H](O[C@@H]2O[C@H](C)C[C@H](N(C)C)[C@H]2O)[C@](C)(OC)C[C@@H](C)C(=O)[C@H](C)[C@@H](O)[C@]1(C)O [Clarithromycin (Biaxin), Clarithromycin]?
A: ORAL BIOAVAILABILITY [1, 5]: 55%; PLASMA PROTEIN BINDING (plasma protein; [5]): Low; HALF-LIFE [2, 5]: 4 h

Q: Which “ORAL BIOAVAILABILITY” value [1, 5] does the source give for CC(=O)O[C@H]1C(=O)[C@@]2(C)[C@H]([C@H](OC(=O)c3ccccc3)[C@]3(O)C[C@H](OC(=O)[C@H](O)[C@@H](NC(=O)c4ccccc4)c4ccccc4)C(C)=C1C3(C)C)[C@]1(OC(C)=O)CO[C@@H]1C[C@@H]2O [Paclitaxel (Taxol), Paclitaxel] here?
A: 6.50%

Q: And the “PLASMA PROTEIN BINDING” value (plasma protein; [5])?
A: 89-98% ^

Q: What about the “HALF-LIFE” value [2, 5] of the same compound?
A: 13.1 to 52.7 h

Q: Which results are given for O=C(O[C@H]1CN2CCC1CC2)N1CCc2ccccc2[C@@H]1c1ccccc1 [Solifenacin (Vesicare), Solifenacin]?
A: ORAL BIOAVAILABILITY ([1]; in vivo, po): 90%; PLASMA PROTEIN BINDING (plasma protein; plasma): 98%; HALF-LIFE ([2]; in vivo): 45 to 68 h

Q: With COc1ccc2c(c1)c(CC(=O)O)c(C)n2C(=O)c1ccc(Cl)cc1 [Indomethacin] as the compound, how does the “ORAL BIOAVAILABILITY” value [1, 6] read?
A: 100%

Q: What about the “PLASMA PROTEIN BINDING” value (plasma protein; [6]) of the same compound?
A: 99%

Q: And the “HALF-LIFE” value [2, 6]?
A: 4.5 h

Q: For CN(C)CCCN1c2ccccc2Sc2ccc(Cl)cc21 [Chlorpromazine], which “ORAL BIOAVAILABILITY” value [1, 4] is on record?
A: 32%

Q: And the “PLASMA PROTEIN BINDING” value (plasma protein; [4])?
A: 90-99% ^

Q: What about the “HALF-LIFE” value [2, 4] of the same compound?
A: 6 h

Q: What does the source list for Nc1c2c(nc3ccccc13)CCCC2 [Tacrine]?
A: ORAL BIOAVAILABILITY ([1]; in vivo, po): 2.4-36%; PLASMA PROTEIN BINDING (plasma protein; plasma): 55%; HALF-LIFE ([2]; in vivo): 2 to 4 h

Q: What does the source list for CN(C)CCC=C1c2ccccc2CCc2ccccc21 [Amitriptyline]?
A: ORAL BIOAVAILABILITY [1, 3]: ~43-46%; ORAL BIOAVAILABILITY [1, 7]: 30-60%; ORAL BIOAVAILABILITY [1, 6]: 30-60%; ORAL BIOAVAILABILITY [1, 4]: ~43-46%; PLASMA PROTEIN BINDING (plasma protein; [3]): >90%; PLASMA PROTEIN BINDING (plasma protein; [7]): >90%; PLASMA PROTEIN BINDING (plasma protein; [6]): >90%; PLASMA PROTEIN BINDING (plasma protein; [4]): >90%; HALF-LIFE [2, 3]: ~13 to 36 h; HALF-LIFE [2, 7]: 15 h; HALF-LIFE [2, 6]: 15 h; HALF-LIFE [2, 4]: ~13 to 36 h

Q: For CCOc1cc(CC(=O)N[C@@H](CC(C)C)c2ccccc2N2CCCCC2)ccc1C(=O)O [Repaglinide (Prandin), Repaglinide], which “ORAL BIOAVAILABILITY” value [1, 5] is on record?
A: 56%

Q: What about the “PLASMA PROTEIN BINDING” value (plasma protein; [5]) of the same compound?
A: >98%

Q: What about the “HALF-LIFE” value [2, 5] of the same compound?
A: 1 h

Q: For CC(C)C[C@H]1C(=O)N2CCC[C@H]2[C@]2(O)O[C@](NC(=O)[C@@H]3C=C4c5cccc6[nH]c(Br)c(c56)C[C@H]4N(C)C3)(C(C)C)C(=O)N12 [Bromocriptine (Parlodel), Bromocriptine], which “ORAL BIOAVAILABILITY” value [1, 5] is on record?
A: 65-95%

Q: And the “PLASMA PROTEIN BINDING” value (plasma protein; [5])?
A: 90-96% ^

Q: What about the “HALF-LIFE” value [2, 5] of the same compound?
A: 6 to 20 h

Q: For CN1[C@@H]2CC[C@H]1C[C@@H](OC(=O)c1c[nH]c3ccccc13)C2 [Tropisetron], which “ORAL BIOAVAILABILITY” value [1, 4] is on record?
A: 60-100%

Q: And the “PLASMA PROTEIN BINDING” value (plasma protein; [4])?
A: 71%

Q: What about the “HALF-LIFE” value [2, 4] of the same compound?
A: 5.6 to 8.6 h

Q: With CNCCC(Oc1ccc(C(F)(F)F)cc1)c1ccccc1 (stereo not drawn) [Fluoxetine] as the compound, how does the “ORAL BIOAVAILABILITY” value [1, 7] read?
A: 60-80%

Q: What about the “ORAL BIOAVAILABILITY” value [1, 4] of the same compound?
A: 60-80%

Q: What about the “PLASMA PROTEIN BINDING” value (plasma protein; [7]) of the same compound?
A: 94.5%^

Q: And the “PLASMA PROTEIN BINDING” value (plasma protein; [4])?
A: 94.5%^

Q: What about the HALF-LIFE [2, 7] of the same compound?
A: 96 to 140 h

Q: What about the HALF-LIFE [2, 4] of the same compound?
A: 96 to 140 h

Q: Which results are given for Cc1ncc2n1-c1ccc(Cl)cc1C(c1ccccc1F)=NC2 [Midazolam (Versed), Midazolam]?
A: ORAL BIOAVAILABILITY ([1]; in vivo, po): PO: 36%; PLASMA PROTEIN BINDING (plasma protein; [5]): 97%; HALF-LIFE ([2]; in vivo): 3 to 6 h

Q: Which “ORAL BIOAVAILABILITY” value [1, 7] does the source give for CC(C(=O)O)c1ccc(C(=O)c2cccs2)cc1 (stereo not drawn) [Suprofen] here?
A: 92%

Q: And the “PLASMA PROTEIN BINDING” value (plasma protein; [7])?
A: >99%

Q: And the “HALF-LIFE” value [2, 7]?
A: 2 to 4 h

Q: What does the source list for CN(C)CCCC1(c2ccc(F)cc2)OCc2cc(C#N)ccc21 (stereo not drawn) [Citalopram]?
A: ORAL BIOAVAILABILITY [1, 6]: 80%; PLASMA PROTEIN BINDING (plasma protein; [6]): 80%; HALF-LIFE [2, 6]: 35 h

Q: With COc1ccnc(C[S+]([O-])c2nc3ccc(OC(F)F)cc3[nH]2)c1OC (stereo not drawn) [Pantoprazole] as the compound, how does the “ORAL BIOAVAILABILITY” value [1, 6] read?
A: 77%

Q: And the “PLASMA PROTEIN BINDING” value (plasma protein; [6])?
A: 98%

Q: And the “HALF-LIFE” value [2, 6]?
A: 1 h

Q: What does the source list for COc1cc2nc(N(C)CCCNC(=O)C3CCCO3)nc(N)c2cc1OC (stereo not drawn) [Alfazosin (Uroxatral), Alfazosin]?
A: ORAL BIOAVAILABILITY ([1]; in vivo, po): 49%; PLASMA PROTEIN BINDING (plasma protein; plasma): 86%; HALF-LIFE ([2]; in vivo): 10 h

Q: What does the source list for CN1C(C(=O)Nc2ccccn2)=C(O)c2sc(Cl)cc2S1(=O)=O [Lornoxicam]?
A: ORAL BIOAVAILABILITY ([1]; cell marked IM, Table of Exemplary Drugs, CYP2C9): IM: 87%; PLASMA PROTEIN BINDING (plasma protein; [7]): 99.7%^; HALF-LIFE [2, 7]: 4 h

Q: For CCCCC1=NC2(CCCC2)C(=O)N1Cc1ccc(-c2ccccc2-c2nnn[nH]2)cc1 [Irbesartan], which “ORAL BIOAVAILABILITY” value [1, 7] is on record?
A: 60-80%

Q: What about the “PLASMA PROTEIN BINDING” value (plasma protein; [7]) of the same compound?
A: 90%

Q: What about the “HALF-LIFE” value [2, 7] of the same compound?
A: 11 to 15 h

Q: With OC(CNCC(O)C1CCc2cc(F)ccc2O1)C1CCc2cc(F)ccc2O1 (stereo not drawn) [Nebivolol] as the compound, how does the “ORAL BIOAVAILABILITY” value [1, 4] read?
A: 12-96%

Q: And the “PLASMA PROTEIN BINDING” value (plasma protein; [4])?
A: 98%

Q: And the “HALF-LIFE” value [2, 4]?
A: 12 to 19 h
